Assays:
[1] = test system: HT22 cells; assay: Glutamate challenge of HT22 neuronal cells, viability; type: cell-based; conditions: for protective activity of related molecules: up to 1 μM, glutamate challenged HT22 cells
Protocol: An in vitro assay to recapitulate key aspects of the acute KA model was established. In this case, unconcentrated ACM was applied to the glutamate sensitive neuronal cell line HT22 (66, 67). Glutamate challenge of 5 mM was titrated to induce 60-80% cell death (ie: 20-40% survival). […] The media was concentrated for proteomic analyses.
LXA4 and LXB4 promote direct neuroprotective signaling. To the inventor's knowledge, a role for lipoxins as direct neuroprotective or neurotrophic factors has not been reported. Although their established anti-inflammatory actions extend to the CNS (29-32). However, it was hypothesized they may have indirect protective effects. In order to test whether the protective activity was direct or indirect, LXA4 or LXB4 was applied to neuronal cells in an established in vitro assay.
There is no established receptor for LXB4. However, LXB4 shares structural homology with LXA4 and the DHA-derived resolving D2 (RvD2), which mediate their actions via FPR2 or GPR18 (74), respectively. Therefore, it was assessed whether specific receptor antagonists for FPR2 or GPR18 could block LXB4 mediated protection.
As shown in FIG. 14 lipoxin neuroprotection is dose responsive. Dose responses were generated for LXA4 (open circles) and LXB4 (closed circles) in HT22 cells exposed to glutamate stress, followed by nonlinear regression analyses.

[2] = test system: primary cortical neurons; assay: Primary cortical neurons under paraquat oxidative stress, neuron number; type: cell-based; conditions: n=5
Text: Quantification of neuron number following oxidative stress from the redox cycling compound paraquat in primary cortical neurons.

[3] = test system: HT22 cells; assay: Mitosox mitochondrial oxidative stress in glutamate challenged HT22 cells; type: cell-based; conditions: 1 μM, HT22 cells challenged with glutamate, vs vehicle
Protocol: HT22 cells challenged with glutamate were then assayed for mitochondrial oxidative stress using the Mitosox reagent, in combination with 1 μM LXA4, LXB4, and the LXA4 receptor ALX/FPR2 agonists Quinc-1 and Mmk-1.

[4] = test system: retinal ganglion cell neurons (RGCs); assay: Mouse acute retinal insult model (intravitreal kainic acid), RGC survival / GCL apoptosis; type: in vivo
Protocol: Male C57BLL/6 mice, 4-6 weeks of age, were purchased from Taconic or Jackson labs. All experimental protocols were approved by the UHN and UC Berkeley ACUC in accordance with applicable regulations. Mice were anesthetized by intraperitoneal injection of ketamine/xylazine. Intravitreal injections with 10 mM kainic acid (KA) were performed as previously described (45). Briefly, a 30-gauge needle was inserted tangentially into the vitreous and replaced with a Hamilton syringe to inject a volume of 2 μL, followed by application of ophthalmic antibiotic ointment (BNP, Vetoquinol). In some experiments, 10× concentrated ACM or test compounds were injected intravitreally one hour prior to the KA injection in concentrations as follows: LXA4 and LXB4 at 10 μM, Zileuton at 2 μg/ul, and WRW4 at 15 μM, all dissolved in PBS. Mice were euthanized by CO2 asphyxiation 18 hours post KA treatment and the eyes fixed in 4% paraformaldehyde. In all experiments n refers to the number of animals tested.
To quantify the extent of apoptosis, a well-established method was used to count the number of TUNEL-positive nuclei in the ganglion cell layer (GCL) and expressed it as a fraction of the total GCL nuclei (50-54). TUNEL labeling was performed according to the manufacturer's instructions (DeadEnd; Promega). Briefly, cryostat sections were fixed with 4% PFA for 5 minutes and washed in PBS. Equilibration buffer was added, and rTdT reaction mix was applied to each slide and incubated at 37° C. for 60 min. Following the rTdT reaction, slides were washed in 2×SSC and PBS and finally mounted with glycerol-based medium. For RGC survival, RBPMS-positive cells in the GCL were counted and expressed as a fraction of GCL nuclei. For each eye, at least five central retinal sections were analyzed at the level of the optic nerve stretching to each ora serrata, and the results averaged, as previously described (42).
In order to test the influence of the transplanted cells on inner retinal pathology, RA's were transplanted as above. After 16 days retinas were challenged with an acute metabolic injury by injection of kainic acid (KA). […]
Retinal astrocyte neuroprotection is mediated through secreted factors that include a small molecule component enriched in LXA4 and LXB4. […] This time, survival of RGCs was specifically assessed by probing for the selective marker RBPMS, along with complementary TUNEL staining, and quantified as previously. As expected, extensive RGC loss was detected in KA challenged eyes injected with cell-free control media incubated under the same conditions as ACM (FIG. 2A). […]

SMILES	protective activity of related molecules [1]	neuron number following oxidative stress from paraquat [2]	other results
CC/C=C\C[C@H](O)[C@H](O)/C=C/C=C/C=C\C=C\[C@@H](O)C/C=C\CCC(=O)O [RvD2, reference compound]	no protective activity	no protection	
CCCCOc1ccc(C(=O)NN2C(=O)c3ccccc3NC2c2ccc(OC)cc2)cc1 (centres unmarked) [Quinc-1, reference compound]			mitochondrial oxidative stress (Mitosox) [3]: reduce mitochondrial oxidative stress
CC(c1cc2ccccc2s1)N(O)C(N)=O (centres unmarked) [Zileuton, reference compound]			exacerbation of RGC loss in response to KA challenge compared to vehicle ([4]; intravitreal inhibitor prior to KA, Zileuton 10 μM or 2 μg/ul, WRW4 15 μM): 60%; effect on RGC numbers, drug alone ([4]; uninjured (naive) eyes, intravitreal, no KA, RBPMS counts): no effect
C=C(C)[C@@H]1CCC(C)=C[C@H]1c1c(OC)cc(C)cc1OC [O-1918, reference compound]			block of LXB4 protective activity by receptor antagonist ([1]; LXB4 at 500 nM, increasing μM concentrations of antagonist): did not block LXB4 protective activity
CCCCC[C@H](O)/C=C/C=C\C/C=C\C/C=C\CCCC(=O)O [15-HETE, reference compound]	no protective activity	no protection	
